Experimental data from patent US6603023B2 (priority 1996, dated 2003).
Like-named read-outs stand apart in the source and are kept apart here. Marks after values point to notes of the source that are not given here.

Key:
[1] = tested on: CCRF-CEM human T-cell acute lymphoblastic leukemia cell line; assay: XTT cytotoxicity (cell growth inhibition), CCRF-CEM
Procedure: (§1) The DC-3F hamster lung fibroblast cell line and its actinomycin D-selected sublines (DC-3F/ADII and DC-3F/ADX) were obtained from the Memorial Sloan-Kettering Cancer Center (MSKCC).
(§2) The drug-resistant cell lines were continuously cultured in the presence of the selecting agent, AD, DX, VBL or VM to maintain the drug resistant phenotypes. […] All cells were cultured in RPMI 1640-10% FBS at 37° C. 5% CO2 (see below).
(§3) The cells were cultured at an initial density of 5×10^4 cells/mL. They were maintained in a 5% CO2-humidified atmosphere at 37° C. in RPMI-1640 medium (GIBCO-BRL, Gaithersburg, Md.) containing penicillin (100 U/mL), streptomycin ([…]) (GIBCO-BRL) and 10% heat inactivate fetal bovine serum. Culture for cell suspension (such as for CCRF-CEM, P388 and sublines), were performed by the XTT-microculture tetrazonium method (Scudiero, D. A. et al., Cancer Res. 1988, 48, 4827-4833) in duplicate in 96-well microtiter plates.
(§4) 2′,3′-Bis(methoxy-4-nitro-5-sufophenyl)-5-[(phenylamino)carbonyl]2H-tetrazolium hyudroxide (XTT) was prepared at 1 mg/mL in prewarmed (37° C.) medium without serum. Phenazine methosulfate (PMS) and fresh XTT were mixed together to obtain 0.025 mM PMS-XTT solution (25 μL of the stock 5 mM PMS was added per 5 mL of 1 mg/mL XTT). Following a 72 h incubation, 50 μL of the assay aliquots were added to each well of the cell culture. After incubation at 37° C. for 4 h, absorbance at 450 nm and 630 nm was measured with a microplate reader (EL340, Bio-Tek Instruments, Inc., Winooski, Vt.).

CCRF-CEM/VBL100 = assay: cells; type: cell-based, human
Procedure: as §2, §3, §4

CCRF-CEM/VM1 = assay: cells; type: cell-based, human
Procedure: as §2, §3, §4

[2] = tested on: DC-3F hamster lung fibroblast cell line; assay: SRB cytotoxicity, DC-3F; type: cell-based; conditions: Table 3; read-out: IC50
Procedure: as §1, §2
(§5) The cytotoxicity of the drug toward the monolayer cell cultures (such as DC-3F, MCF-7, SK-N-As and sublines) was determined in 96-well microtiter plates by the SRB method as described by Skehan and co-workers (Skehan, P., et al., J. Natl. Cancer Inst. 1990, 82, 1107-1112) for measuring the cellular protein content. Cultures were fixed with trichloroacetic acid and then stained for 30 min with 0.4% suforhodamine B dissolved in 1% acetic acid. Unbound dye was removed by acetic acid washes, and the protein-bound dye was extracted with an unbuffered Tris base (tris(hydroxy-methyl)aminomethane) for determination of absorbance at 570 nm in a 96-well microtiter plate reader. The experiments were carried out in duplicate. Each run entailed six to seven concentrations of the tested drugs. Data were analyzed with the median-effect plot (Chou, T.-C. & Talalay, P. T. (1984) Adv. Enzyme Regul. 22, 27-55) using a previously described computer program (Chou, J., & Chou T.-C. 1987, Dose-effect analysis with microcomputers: Quantitation of ED50, synergism, antagonism, low-dose risk, reception-ligand binding and enzyme kinetics, IBM-PC software and manual, Biosoft, Cambridge, U.K.).

DC-3F/ADII = assay: SRB cytotoxicity, DC-3F/ADII; type: cell-based, hamster; conditions: Table 3; read-out: IC50
Procedure: as §1, §2, §5
(§6) Concerning Table 3, experiments were carried out using the cell lines DC-3F (parent hamster lung cells), DC-3F/ADII (moderate multidrug-resistant (MDR) cells) and DC-3F/ADX (very strong MDR cells).

DC-3F/ADX = assay: cells; type: cell-based, hamster; conditions: Table 3; read-out: IC50
Procedure: as §1, §2, §5, §6

[3] = read-out: IC50 (A), Table 2A, parent cell line
[4] = Table 2, CCRF-CEM/VLB, read-out: IC50
[5] = Table 2A, MDR cell line, read-out: IC50 (B)
[6] = Table 6, single determinations, read-out: IC50
[7] = Table 7, CEM/VBL, read-out: IC50
[8] = Table 2, CCR-CEM/VM-1, read-out: IC50
[9] = Table 2A, Topo II gene mutated cell line, read-out: IC50 (C)
[10] = Table 6, single determinations, listed as 6, read-out: IC50
[11] = Table 6, read-out: IC50 (mean ± of determinations, in parentheses)
[12] = Table 6, single determinations, listed as 8, read-out: IC50
[13] = Table 6, single determinations, listed as EPOTHILONE B (Synthetic), read-out: IC50
[14] = Table 6, single determinations, listed as 9, read-out: IC50
[15] = Table 6, single determinations, listed as EPOTHILONE B (Natural), read-out: IC50

Compound: CC(=Cc1csc(C)n1)C1CC=CCCCC(C)C(O)C(C)C(O)C(C)(C)C(O)CC(=O)O1 (stereo not shown) [#2]
- IC50 ([1]; Table 2): 14200 nM
- IC50 ([1]; Table 6, single determinations): 14200 nM
- IC50 ([1]; Table 7, CEM): 14200 nM
- IC50 [1, 3]: 14200 nM
- IC50 (CCRF-CEM/VBL100; [4]): 6280 nM
- (B)/(A) ratio (fold resistance >1, collateral sensitivity <1) (CCRF-CEM/VBL100; Table 2A): (0.44)^b
- IC50 (CCRF-CEM/VBL100; [5]): 6280 nM
- IC50 (CCRF-CEM/VBL100; [6]): 6280 nM
- IC50 (CCRF-CEM/VBL100; [7]): 6280 nM
- IC50 (CCRF-CEM/VM1; [8]): 43900 nM
- (C)/(A) ratio (fold resistance >1, collateral sensitivity <1) (CCRF-CEM/VM1; Table 2A): (309)^a
- IC50 (CCRF-CEM/VM1; [9]): 43900 nM
- IC50 (CCRF-CEM/VM1; [6]): 43900 nM
- IC50 [2]: 10300 nM
- IC50 (DC-3F/ADII): 4600 nM
- IC50 (DC-3F/ADX): 4810 nM

Compound: CC(=Cc1csc(C)n1)C1CC2OC2CC=CCCCCC(C)(C)CCC(=O)O1 (stereo not shown) [#3]
- IC50 ([1]; Table 2): 272000 nM
- IC50 ([1]; Table 6, single determinations): 272000 nM
- IC50 ([1]; Table 7, CEM): 272000 nM
- IC50 [1, 3]: 272000 nM
- IC50 (CCRF-CEM/VBL100; [4]): 22400 nM
- (B)/(A) ratio (fold resistance >1, collateral sensitivity <1) (CCRF-CEM/VBL100; Table 2A): (0.082)^b
- IC50 (CCRF-CEM/VBL100; [5]): 22400 nM
- IC50 (CCRF-CEM/VBL100; [6]): 22400 nM
- IC50 (CCRF-CEM/VBL100; [7]): 22400 nM
- IC50 (CCRF-CEM/VM1; [8]): 11600 nM
- (C)/(A) ratio (fold resistance >1, collateral sensitivity <1) (CCRF-CEM/VM1; Table 2A): (0.043)^b
- IC50 (CCRF-CEM/VM1; [9]): 11600 nM
- IC50 (CCRF-CEM/VM1; [6]): 11600 nM
- IC50 [2]: 9520 nM
- IC50 (DC-3F/ADII): 3000 nM
- IC50 (DC-3F/ADX): 972 nM

Compound: CC(=Cc1csc(C)n1)C1CC=CCCCC(C)C(O)C(C)C(=O)C(C)(C)C(O)CC(=O)O1 (stereo not shown) [#6]
- IC50 [1]: 52 nM
- Rel. Value (potency relative to Epo B) ([1]; CCRF-CEM leukemic cells): 1/149
- IC50 ([1]; Table 6, single determinations, listed as 6): 52 nM
- IC50 ([1]; Table 7, CEM, listed as 6): 52 nM
- IC50 (CCRF-CEM/VBL100; [10]): 35 nM
- IC50 (CCRF-CEM/VBL100; Table 7, CEM/VBL, listed as 6, read-out: IC50): 35 nM
- IC50 (CCRF-CEM/VBL100; read-out: IC50): 35 nM
- IC50 (CCRF-CEM/VM1; [10]): 111 nM

Compound: C/C(=C\c1csc(C)n1)[C@@H]1C[C@@H]2O[C@]2(C)CCC[C@H](C)[C@H](O)[C@@H](C)C(=O)C(C)(C)[C@@H](O)CC(=O)O1 [#8, epothilone B]
- IC50 ([1]; Table 5, single determinations): 0.42 nM
- IC50 ([1]; Table 6, single determinations, listed as 8): 0.82 nM
- IC50 ([1]; Table 6, single determinations, listed as EPOTHILONE B (Synthetic)): 0.55 nM
- IC50 ([1]; Table 7, CEM, listed as synthetic epothilone B): 0.82 nM
- IC50 ([1]; read-out: IC50 (mean ± of determinations, in parentheses), Table 6): 0.35 nM
- IC50 (CCRF-CEM/VBL100; Table 5, CCRF-CEM/VLB, single determinations, read-out: IC50): 1.7 nM
- IC50 (CCRF-CEM/VBL100; [11]): 2.13 nM
- IC50 (CCRF-CEM/VBL100; [12]): 2.9 nM
- IC50 (CCRF-CEM/VBL100; [13]): 3.1 nM
- IC50 (CCRF-CEM/VBL100; Table 7, CEM/VBL, listed as synthetic epothilone B, read-out: IC50): 2.93 nM
- IC50 (CCRF-CEM/VM1; [11]): 1.26 nM
- IC50 (CCRF-CEM/VM1; [12]): 4.4 nM
- IC50 (CCRF-CEM/VM1; [13]): 1.8 nM

Compound: C/C(=C\c1csc(C)n1)[C@@H]1C[C@@H]2O[C@]2(C)CCC[C@H](C)[C@H](O)[C@@H](C)C(=O)C(C)(C)[C@@H](O)CC(=O)O1 [#9, epothilone B]
- IC50 ([1]; Table 6, single determinations, listed as 9): 0.44 nM
- IC50 ([1]; Table 6, single determinations, listed as EPOTHILONE B (Natural)): 0.17 nM
- IC50 ([1]; Table 7, CEM, listed as natural epothitone B): 0.44 nM
- relative resistance (fold) vs parent cell line (CCRF-CEM/VBL100; Table 6): (7.0X)
- IC50 (CCRF-CEM/VBL100; [14]): 2.6 nM
- IC50 (CCRF-CEM/VBL100; [15]): 1.7 nM
- IC50 (CCRF-CEM/VBL100; Table 7, CEM/VBL, listed as natural epothitone B, read-out: IC50): 2.63 nM
- IC50 (CCRF-CEM/VM1; [14]): 1.8 nM
- IC50 (CCRF-CEM/VM1; [15]): 0.77 nM

Compound: CC1=CCC(C(C)=Cc2csc(C)n2)OC(=O)CC(O)C(C)(C)C(=O)C(C)C(O)C(C)CCC1 (stereo not shown) [#11]
- IC50 ([1]; Table 6, single determinations): 90 nM
- IC50 ([1]; Table 7, CEM): 90 nM
- IC50 (CCRF-CEM/VBL100; [6]): 262 nM
- IC50 (CCRF-CEM/VBL100; [7]): 262 nM
- IC50 (CCRF-CEM/VBL100; read-out: IC50): 262 nM
- IC50 (CCRF-CEM/VM1; [6]): 94 nM

Compound: CC(=Cc1csc(C)n1)C(O)CC=CCCCC(C)C(O)C(C)C(=O)C(C)(C)C(O)CC(=O)O (stereo not shown) [#12]
- IC50 ([1]; Table 6, single determinations): 794 nM
- IC50 ([1]; Table 7, CEM): 794 nM
- IC50 (CCRF-CEM/VBL100; [6]): > 5000 nM
- IC50 (CCRF-CEM/VBL100; [7]): > 5000 nM
- IC50 (CCRF-CEM/VM1; [6]): > 5000 nM
